The values that follow come from patent publication US11413292B2, “Tricyclic heterocycle compounds useful as HIV integrase inhibitors” (Merck Sharp & Dohme Corp., priority 2018, dated 2022).

The structures appear in SMILES notation. Like-named read-outs stand apart in the source and are kept apart here.

The assay relates to HIV-1 (H9/IIIB strain) virus. The assay is described as follows: microbe, parasite or virus in culture. The note with it: MT4-GFP cells infected with HIV-1 H9/IIIB, inhibition of reproductive ratio. The assay is classed as cell-based.
[1] abbreviates: 0% NHS condition (RPMI 1640), read-out: Viking, IC50 (0% NHS).
Setting [2] is: 100% normal human serum (NHS) condition, read-out: Viking, IC50 (100% NHS).

Regarding `COC1CCN2CN(CC1)n1cc(C(=O)NCc3cccc(F)c3F)c(=O)c(O)c1C2=O` (single isomer, unassigned) [Example 23D], the IC50 worked out at 1.9 nM under setting [1] and 567 nM under setting [2].
The corresponding values for `COC1CCN2CN(CC1)n1cc(C(=O)NCc3c(F)cc(F)cc3F)c(=O)c(O)c1C2=O` (single isomer, unassigned) [Example 5C, 9-hydroxy-4-methoxy-8,10-dioxo-N-(2,4,6-trifluorobenzyl)-3,4,5,6,8,10-hexahydro-2H-1,7-methanopyrido[1,2-b][1,2,5]triazecine-11-carboxamide] are 1.68 nM and 62.8 nM.
For the compound `COC1CCN2CN(CC1)n1cc(C(=O)NCc3ccc(F)cc3F)c(=O)c(O)c1C2=O` (single isomer, unassigned) [Example 20B], the half-maximal inhibitory concentration (IC50) is 2.8 nM under setting [1] and 371 nM under setting [2].
Consider `COC1CCN2CN(CC1)n1cc(C(=O)NCc3ccc(F)c(Cl)c3F)c(=O)c(O)c1C2=O` (single isomer, unassigned) [Example 21A], for which the 50% inhibitory concentration (IC50) under setting [1] was found to be 2.5 nM and the concentration for half-maximal inhibition (IC50) under setting [2] stood at 2520 nM.
Turning to `COC1CCN2CN(CC1)n1cc(C(=O)NCc3c(F)ccc(Cl)c3F)c(=O)c(O)c1C2=O` (single isomer, unassigned) [Example 19A], the IC50 came out at 1.8 nM under setting [1] and 116 nM under setting [2].
In the case of `COC1CCN2CN(CC1)n1cc(C(=O)NCc3c(F)cccc3F)c(=O)c(O)c1C2=O` (single isomer, unassigned) [Example 22C], the IC50 reads like this: under setting [1], 2 nM; under setting [2], 88 nM.
For the compound `COC1CCN2CN(CC1)n1cc(C(=O)NCc3cccc(F)c3F)c(=O)c(O)c1C2=O` (single isomer, unassigned) [Example 23A], the IC50 reads like this: under setting [1], 5.8 nM; under setting [2], 728 nM.
For `COC1CCN2CN(CC1)n1cc(C(=O)NCc3ccc(F)c(Cl)c3F)c(=O)c(O)c1C2=O` (single isomer, unassigned) [Example 21D], the IC50 stood at 2 nM under setting [1] and 472 nM under setting [2].
`COC1CCN2CN(CC1)n1cc(C(=O)NCc3cccc(Cl)c3F)c(=O)c(O)c1C2=O` (single isomer, unassigned) [Example 18B]: the IC50 by setting is: under setting [1], 2.5 nM; under setting [2], 435 nM.
For `O=C(NCc1cccc(Cl)c1F)c1cn2c(c(O)c1=O)C(=O)N1CCOCCN2C1` [Example 13A], the IC50 by setting is: under setting [1], 2.74 nM; under setting [2], 3360 nM.
`O=C(NCc1ccc(F)c(Cl)c1F)c1cn2c(c(O)c1=O)C(=O)N1CCCCCN2C1` [Example 10A]: the IC50 under setting [1] is 1.89 nM and the IC50 under setting [2] is 8580 nM.
Take `COC1CCN2CN(CC1)n1cc(C(=O)NCc3c(F)cc(F)cc3F)c(=O)c(O)c1C2=O` (single isomer, unassigned) [Example 5A, 9-hydroxy-4-methoxy-8,10-dioxo-N-(2,4,6-trifluorobenzyl)-3,4,5,6,8,10-hexahydro-2H-1,7-methanopyrido[1,2-b][1,2,5]triazecine-11-carboxamide]: the half-inhibitory concentration (IC50) came to 3.2 nM under setting [1] and 67.2 nM under setting [2].
`O=C(NCc1ccc(F)cc1F)c1cn2c(c(O)c1=O)C(=O)N1CCCCCCN2C1` (single isomer, unassigned) [Example 3B, N-(2,4-difluorobenzyl)-10-hydroxy-9,11-dioxo-2,3,4,5,6,7,9,11-octahydro-1,8-methanopyrido[1,2-b][1,2,5]triazacycloundecine-12-carboxamide]: the IC50 worked out at 5.23 nM under setting [1] and 1880 nM under setting [2].
The corresponding values for `O=C(NCc1ccc(F)cc1F)c1cn2c(c(O)c1=O)C(=O)N1CCOCCN2C1` (single isomer, unassigned) [Example 4A, N-(2,4-difluorobenzyl)-9-hydroxy-8,10-dioxo-2,3,5,6,8,10-hexahydro-1,7-methanopyrido[1,2-e][1,4,5,8]oxatriazecine-11-carboxamide] are 3.45 nM and 9520 nM.
On to `O=C(NCc1ccc(F)cc1F)c1cn2c(c(O)c1=O)C(=O)N1CCCCN2C1` [Example 2A], for which the half-inhibitory concentration (IC50) runs as follows: under setting [1], 4.04 nM; under setting [2], 4160 nM.
`O=C(NCc1c(F)ccc(Cl)c1F)c1cn2c(c(O)c1=O)C(=O)N1CCCCCN2C1` [Example 11A]: the half-inhibitory concentration (IC50) by setting is: under setting [1], 3.45 nM; under setting [2], 12500 nM.
As to `O=C(NCc1c(F)cc(F)cc1F)c1cn2c(c(O)c1=O)C(=O)N1CCC(O)CCN2C1` (single isomer, unassigned) [Example 17A], the IC50 was 66.1 nM under setting [1] and 1270 nM under setting [2].
Consider `O=C(NCc1cccc(Cl)c1F)c1cn2c(c(O)c1=O)C(=O)N1CCCCCN2C1` [Example 9A], for which the IC50 amounted to 2.57 nM under setting [1] and 5620 nM under setting [2].
For `CN1CCN2CN(CC1)n1cc(C(=O)NCc3c(F)ccc(Cl)c3F)c(=O)c(O)c1C2=O` [Example 25B], the IC50 was determined as 2.1 nM under setting [1] and 139 nM under setting [2].
With `O=C(NCc1ccc(F)c(Cl)c1F)c1cn2c(c(O)c1=O)C(=O)N1CCCCCN2C1` [Example 10B], the IC50 stood at 1.65 nM under setting [1] and 225 nM under setting [2].
Turning to `COC1CCN2CN(CC1)n1cc(C(=O)NCc3c(F)cccc3F)c(=O)c(O)c1C2=O` (single isomer, unassigned) [Example 22B], the IC50 turned out to be 1.6 nM under setting [1] and 161 nM under setting [2].
Turning to `O=C(NCc1c(F)cc(F)cc1F)c1cn2c(c(O)c1=O)C(=O)N1CCC(O)CCN2C1` (single isomer, unassigned) [Example 17D], the IC50 stood at 25.6 nM under setting [1] and 717 nM under setting [2].
`CN1CCN2CN(CC1)n1cc(C(=O)NCc3cccc(Cl)c3F)c(=O)c(O)c1C2=O` [Example 24B]: the IC50 is 3.5 nM under setting [1] and 485 nM under setting [2].
In the case of `O=C(NCc1c(F)cc(F)cc1F)c1cn2c(c(O)c1=O)C(=O)N1CCCCCN2C1` (single isomer, unassigned) [Example 1B, 9-hydroxy-8,10-dioxo-N-(2,4,6-trifluorobenzyl)-3,4,5,6,8,10-hexahydro-2H-1,7-methanopyrido[1,2-b][1,2,5]triazecine-11-carboxamide], the IC50 under setting [1] is 1 nM and the IC50 under setting [2] was determined as 94.7 nM.
In the case of `COC1CCN2CN(CC1)n1cc(C(=O)NCc3ccc(F)cc3F)c(=O)c(O)c1C2=O` (single isomer, unassigned) [Example 20A], the IC50 under setting [1] worked out at 3.3 nM and the IC50 under setting [2] was 88 nM.
As for `O=C(NCc1c(F)ccc(Cl)c1F)c1cn2c(c(O)c1=O)C(=O)N1CCCCCN2C1` [Example 11B], the IC50 was determined as 2.09 nM under setting [1] and 358 nM under setting [2].
Take `COC1CCN2CN(CC1)n1cc(C(=O)NCc3ccc(F)cc3F)c(=O)c(O)c1C2=O` (single isomer, unassigned) [Example 20C]: the IC50 is, setting by setting: under setting [1], 7.5 nM; under setting [2], 606 nM.
Consider `COC1CCN2CN(CC1)n1cc(C(=O)NCc3cccc(Cl)c3F)c(=O)c(O)c1C2=O` (single isomer, unassigned) [Example 18C], for which the half-maximal inhibitory concentration (IC50) is 3.2 nM under setting [1] and 1870 nM under setting [2].
As to `COC1CCN2CN(CC1)n1cc(C(=O)NCc3c(F)cc(F)cc3F)c(=O)c(O)c1C2=O` (single isomer, unassigned) [Example 5B, 9-hydroxy-4-methoxy-8,10-dioxo-N-(2,4,6-trifluorobenzyl)-3,4,5,6,8,10-hexahydro-2H-1,7-methanopyrido[1,2-b][1,2,5]triazecine-11-carboxamide], the IC50 under setting [1] turned out to be 1.93 nM and the IC50 under setting [2] was found to be 124 nM.
With `COC1CCN2CN(CC1)n1cc(C(=O)NCc3cccc(F)c3F)c(=O)c(O)c1C2=O` (single isomer, unassigned) [Example 23B], the IC50 is, setting by setting: under setting [1], 2.1 nM; under setting [2], 314 nM.
